Entries after “also recorded” stand apart in the source; their conditions may differ.
Assays:
[1] = Aqueous solubility at different pH values; type: physicochemical
TEC = TEC (Homo sapiens, UniProt P42680); assay: Kinase selectivity, radiolabeled ATP activity assay; type: biochemical; conditions: ATP near Km
Method: (§1) Each assay is performed at an ATP concentration close to the Km for each enzyme. […] BRK, CSK, ERBB4, FYN, MEK1, MEK2, TXK, and YES1 The inhibitory activity of the compound of Formula I on the enzymatic activity of these kinases and TEC is determined using a radiolabeled ATP activity assay conducted with an ATP concentration near the ATP Km for each enzyme. After co-incubation with a serial dilution of the compound of Formula I, the quantity of ^33P incorporated into a peptide substrate is measured and the data analyzed using standard curve fitting methods.

YES1 = molecular target: T1, YES1 (Homo sapiens, UniProt P07947); assay: as above; type: biochemical
T1 construct: purchased Reaction Biology
T1 sequence (P07947 whole entry): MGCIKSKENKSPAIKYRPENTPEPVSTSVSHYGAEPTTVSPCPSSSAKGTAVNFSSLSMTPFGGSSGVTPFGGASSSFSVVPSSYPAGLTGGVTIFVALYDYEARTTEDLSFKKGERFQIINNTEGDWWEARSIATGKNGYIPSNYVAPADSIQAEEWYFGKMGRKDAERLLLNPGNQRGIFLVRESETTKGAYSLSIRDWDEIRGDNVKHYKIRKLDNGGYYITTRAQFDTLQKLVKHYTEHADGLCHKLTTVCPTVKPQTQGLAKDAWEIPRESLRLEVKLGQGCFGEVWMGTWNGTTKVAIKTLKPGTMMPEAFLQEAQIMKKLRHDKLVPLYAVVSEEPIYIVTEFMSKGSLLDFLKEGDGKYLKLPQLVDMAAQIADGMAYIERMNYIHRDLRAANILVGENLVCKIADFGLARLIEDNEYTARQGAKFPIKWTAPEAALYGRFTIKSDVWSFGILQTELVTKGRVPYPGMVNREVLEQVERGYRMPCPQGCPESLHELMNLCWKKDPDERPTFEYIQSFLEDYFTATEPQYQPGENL
Method: as §1

ERBB4 = molecular target: T2, ERBB4 (Homo sapiens, UniProt Q15303); assay: as above; type: biochemical
T2 construct: purchased Reaction Biology
T2 sequence (Q15303 26-1308): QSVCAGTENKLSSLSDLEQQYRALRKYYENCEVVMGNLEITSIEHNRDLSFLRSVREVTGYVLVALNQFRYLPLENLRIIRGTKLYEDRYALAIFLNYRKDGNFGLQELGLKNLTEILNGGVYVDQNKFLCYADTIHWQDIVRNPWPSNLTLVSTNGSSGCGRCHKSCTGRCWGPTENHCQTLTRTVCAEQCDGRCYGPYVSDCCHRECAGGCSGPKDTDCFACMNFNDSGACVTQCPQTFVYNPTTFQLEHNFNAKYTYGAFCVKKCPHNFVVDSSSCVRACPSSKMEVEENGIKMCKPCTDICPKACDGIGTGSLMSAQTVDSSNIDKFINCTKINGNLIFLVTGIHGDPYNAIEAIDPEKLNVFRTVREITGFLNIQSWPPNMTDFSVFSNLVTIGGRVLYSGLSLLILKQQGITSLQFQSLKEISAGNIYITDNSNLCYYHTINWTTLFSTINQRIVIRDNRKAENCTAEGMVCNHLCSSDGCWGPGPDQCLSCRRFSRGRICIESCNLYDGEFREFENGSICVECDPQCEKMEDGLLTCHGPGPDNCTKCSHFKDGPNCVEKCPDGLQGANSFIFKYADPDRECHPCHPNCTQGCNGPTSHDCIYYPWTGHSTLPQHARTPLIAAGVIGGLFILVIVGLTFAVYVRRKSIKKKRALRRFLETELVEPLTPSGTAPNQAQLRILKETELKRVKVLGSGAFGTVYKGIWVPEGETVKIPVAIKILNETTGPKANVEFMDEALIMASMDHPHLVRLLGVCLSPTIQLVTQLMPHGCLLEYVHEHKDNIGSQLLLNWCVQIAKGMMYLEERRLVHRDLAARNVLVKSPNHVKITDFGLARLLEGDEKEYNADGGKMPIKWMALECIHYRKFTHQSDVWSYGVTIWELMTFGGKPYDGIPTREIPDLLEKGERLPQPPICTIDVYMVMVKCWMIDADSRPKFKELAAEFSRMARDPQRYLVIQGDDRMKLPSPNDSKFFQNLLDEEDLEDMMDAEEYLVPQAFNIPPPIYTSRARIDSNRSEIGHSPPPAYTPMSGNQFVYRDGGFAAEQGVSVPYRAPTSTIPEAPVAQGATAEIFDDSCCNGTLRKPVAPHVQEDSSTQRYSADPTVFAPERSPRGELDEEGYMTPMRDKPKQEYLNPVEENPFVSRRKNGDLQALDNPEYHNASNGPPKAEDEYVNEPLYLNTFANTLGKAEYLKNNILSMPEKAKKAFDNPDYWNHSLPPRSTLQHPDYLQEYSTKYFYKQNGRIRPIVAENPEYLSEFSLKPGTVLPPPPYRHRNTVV
Method: as §1

FYN = molecular target: T3, FYN (Homo sapiens, UniProt P06241); assay: as above; type: biochemical
T3 construct: purchased Reaction Biology
T3 sequence (P06241 whole entry): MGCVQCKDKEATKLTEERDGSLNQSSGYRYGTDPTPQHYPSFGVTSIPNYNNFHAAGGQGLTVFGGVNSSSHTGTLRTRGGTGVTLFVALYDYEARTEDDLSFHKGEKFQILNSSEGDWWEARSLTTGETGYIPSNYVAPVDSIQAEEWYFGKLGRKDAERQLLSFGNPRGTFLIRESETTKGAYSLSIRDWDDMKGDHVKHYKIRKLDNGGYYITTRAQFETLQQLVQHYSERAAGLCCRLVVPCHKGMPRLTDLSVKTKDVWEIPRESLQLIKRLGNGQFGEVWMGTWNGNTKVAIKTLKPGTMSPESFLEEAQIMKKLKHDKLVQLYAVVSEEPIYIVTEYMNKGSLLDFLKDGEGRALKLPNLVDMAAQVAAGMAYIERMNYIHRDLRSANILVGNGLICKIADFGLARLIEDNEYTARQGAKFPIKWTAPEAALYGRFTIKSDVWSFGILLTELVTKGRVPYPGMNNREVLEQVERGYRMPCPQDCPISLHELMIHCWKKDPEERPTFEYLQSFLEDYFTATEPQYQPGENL
Method: as §1

MEK1 = molecular target: T4, MEK1 (Homo sapiens, UniProt Q02750); assay: as above; type: biochemical
T4 construct: purchased Reaction Biology
T4 sequence (Q02750 whole entry): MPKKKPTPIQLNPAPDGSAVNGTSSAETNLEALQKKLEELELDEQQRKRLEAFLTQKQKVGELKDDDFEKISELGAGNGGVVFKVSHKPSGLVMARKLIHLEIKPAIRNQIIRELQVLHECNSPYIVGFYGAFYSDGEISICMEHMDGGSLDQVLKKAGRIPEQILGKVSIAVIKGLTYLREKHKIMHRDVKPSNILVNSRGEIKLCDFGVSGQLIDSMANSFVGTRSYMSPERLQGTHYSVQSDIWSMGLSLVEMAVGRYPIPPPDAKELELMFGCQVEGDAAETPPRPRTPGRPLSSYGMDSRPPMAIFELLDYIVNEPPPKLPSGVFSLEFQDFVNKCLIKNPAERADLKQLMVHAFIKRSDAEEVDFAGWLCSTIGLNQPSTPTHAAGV
Method: as §1

BRK = molecular target: T5, BRK (Homo sapiens, UniProt Q13882); assay: as above; type: biochemical
T5 construct: purchased Reaction Biology
T5 sequence (Q13882 whole entry): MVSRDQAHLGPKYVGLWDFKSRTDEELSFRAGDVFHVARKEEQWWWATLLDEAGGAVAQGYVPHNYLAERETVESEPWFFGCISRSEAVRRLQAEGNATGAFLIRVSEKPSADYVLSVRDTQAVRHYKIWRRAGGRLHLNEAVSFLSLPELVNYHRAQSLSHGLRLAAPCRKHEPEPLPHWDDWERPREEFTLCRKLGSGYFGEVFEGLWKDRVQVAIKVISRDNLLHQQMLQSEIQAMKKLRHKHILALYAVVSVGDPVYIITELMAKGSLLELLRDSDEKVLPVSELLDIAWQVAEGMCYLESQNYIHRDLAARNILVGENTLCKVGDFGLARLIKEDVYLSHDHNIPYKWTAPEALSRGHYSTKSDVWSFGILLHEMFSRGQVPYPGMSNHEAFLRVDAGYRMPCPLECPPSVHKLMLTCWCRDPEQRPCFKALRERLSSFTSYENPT
Method: as §1

MEK2 = molecular target: T6, MEK2 (Homo sapiens, UniProt P36507); assay: as above; type: biochemical
T6 construct: purchased Reaction Biology
T6 sequence (P36507 whole entry): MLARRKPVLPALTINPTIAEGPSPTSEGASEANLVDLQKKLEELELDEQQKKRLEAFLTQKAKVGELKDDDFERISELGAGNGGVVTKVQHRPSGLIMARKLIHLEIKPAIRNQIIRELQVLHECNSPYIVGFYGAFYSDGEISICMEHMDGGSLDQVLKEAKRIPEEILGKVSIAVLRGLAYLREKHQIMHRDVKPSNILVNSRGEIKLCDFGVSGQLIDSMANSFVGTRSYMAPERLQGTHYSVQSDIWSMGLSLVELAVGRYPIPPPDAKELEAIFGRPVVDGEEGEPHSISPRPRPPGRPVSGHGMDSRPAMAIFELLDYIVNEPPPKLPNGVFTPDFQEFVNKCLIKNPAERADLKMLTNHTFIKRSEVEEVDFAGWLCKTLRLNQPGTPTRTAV
Method: as §1

TXK = molecular target: T7, TXK (Homo sapiens, UniProt P42681); assay: as above; type: biochemical
T7 construct: purchased Reaction Biology
T7 sequence (P42681 whole entry): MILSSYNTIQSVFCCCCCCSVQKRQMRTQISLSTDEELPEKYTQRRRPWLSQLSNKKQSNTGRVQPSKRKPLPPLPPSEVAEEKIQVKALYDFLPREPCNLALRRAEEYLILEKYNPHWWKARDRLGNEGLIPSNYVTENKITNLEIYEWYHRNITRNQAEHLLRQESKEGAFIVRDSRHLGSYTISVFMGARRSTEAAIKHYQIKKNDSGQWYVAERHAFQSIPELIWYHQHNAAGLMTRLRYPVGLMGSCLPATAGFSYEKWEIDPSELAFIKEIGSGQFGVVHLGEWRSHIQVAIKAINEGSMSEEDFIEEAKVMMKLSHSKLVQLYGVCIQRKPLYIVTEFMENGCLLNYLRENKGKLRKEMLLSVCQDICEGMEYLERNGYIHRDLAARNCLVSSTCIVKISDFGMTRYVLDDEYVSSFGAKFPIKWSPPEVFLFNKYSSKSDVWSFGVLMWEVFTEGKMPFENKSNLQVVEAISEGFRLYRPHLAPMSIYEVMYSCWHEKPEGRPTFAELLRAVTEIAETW
Method: as §1

CSK = molecular target: T8, CSK (Homo sapiens, UniProt P41240); assay: as above; type: biochemical
T8 construct: purchased Reaction Biology
T8 sequence (P41240 whole entry): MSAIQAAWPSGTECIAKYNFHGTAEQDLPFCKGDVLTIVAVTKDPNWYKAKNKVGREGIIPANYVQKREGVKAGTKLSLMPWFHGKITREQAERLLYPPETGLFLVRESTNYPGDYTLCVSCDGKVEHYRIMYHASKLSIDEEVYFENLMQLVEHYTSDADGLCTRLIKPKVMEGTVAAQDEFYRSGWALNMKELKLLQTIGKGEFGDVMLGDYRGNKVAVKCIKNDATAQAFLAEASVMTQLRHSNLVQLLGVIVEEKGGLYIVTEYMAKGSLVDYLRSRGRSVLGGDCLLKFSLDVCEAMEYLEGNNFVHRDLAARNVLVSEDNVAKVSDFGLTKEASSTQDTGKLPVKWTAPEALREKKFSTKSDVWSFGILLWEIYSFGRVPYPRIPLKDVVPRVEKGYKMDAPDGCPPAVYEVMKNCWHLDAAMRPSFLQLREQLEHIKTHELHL
Method: as §1

371 kinases = assay: Kinase selectivity assay (Reaction Biology Wild-Type Kinase Profiler); type: biochemical; conditions: 1.0 μM compound; ATP close to Km for each enzyme
Method: Each assay is performed at an ATP concentration close to the Km for each enzyme. […] After co-incubation with a serial dilution of the compound of Formula I, the quantity of ^33P incorporated into a peptide substrate is measured and the data analyzed using standard curve fitting methods.

[2] = Solubility screening in lipid vehicles; type: physicochemical
Method: The solubility of the compound of Formula I in lipid vehicles is also examined. The compound of Formula I Form A is added into a clear, 20 mL glass vials followed by the corresponding excipients, e.g., MIGLYOL® 812 (saturated coconut and palmkernel oil-derived caprylic and capric fatty acids and glycerin, e.g., C8 and C10 triglycerides), CAPMUL® MCM EP (glyceryl monocaprylocaprate type I (EP)), PECEOL™ (glycerol monooleates (type 40) EP, glyceryl monooleate (type 40) NF), LABRAFIL® M2125CS (linoleoyl polyoxyl-6 glycerides), LAUROGLYCOL™ FCC (propylene glycol monolaurate (type I)), Span® 80 (sorbitane monooleate), PHOSAL® 53 MCT (lecithin in caprylic/capric triglycerides, alcohol, glyceryl stearate, oleic acid, and ascorbyl palmitate), or capmul PG-8 (propylene glycol monocaprylate). The samples are then homogenized with a handheld homogenizer for 10 minutes until the compound of Formula I is visibly dissolved. […] A set of matching control formulations are also prepared.

[3] = 1.0 μM compound, ATP close to Km, read-out: Percent of Control (POC)

COc1ccc(F)cc1C(=O)NCc1ccc(-c2nn([C@@H](C)C(F)(F)F)c(N)c2C(N)=O)cc1 [compound of Formula I, (S)-5-amino-3-(4-((5-fluoro-2-methoxybenzamido)methyl)phenyl)-1-(1,1,1-trifluoropropan-2-yl)-1H-pyrazole-4-carboxamide]
solubility ([1]; aqueous solution, aqueous buffer, between pH 1 to pH 10): 14 to 17 µg/mL | solubility ([1]; aqueous solution, aqueous buffer, pH 3, actual media pH 3.03): 14 µg/mL | solubility ([1]; aqueous solution, aqueous buffer, pH 4, actual media pH 4.04): 14 µg/mL | solubility ([1]; aqueous solution, aqueous buffer, pH 6, actual media pH 6.04): 14 µg/mL | solubility ([1]; aqueous solution, aqueous buffer, pH 8, actual media pH 8.02): 14 µg/mL | solubility ([1]; aqueous solution, aqueous buffer, pH 10, actual media pH 9.98): 14 µg/mL | solubility ([1]; aqueous solution, simulated gastric fluid, pH 1.5, actual media pH 1.49): 15 µg/mL | solubility ([1]; aqueous solution, simulated gastric fluid, pH 2, actual media pH 2.06): 15 µg/mL | solubility ([1]; simulated gastric fluid, (0.1 N HCl) pH 1, actual media pH 1.09): 17 µg/mL | IC50 (TEC): 1230 nM | remaining activity at 1 µM (YES1; [3]): < 50% | IC50 (YES1; ATP near Km): 157 nM | remaining activity at 1 µM (ERBB4; [3]): < 50% | IC50 (ERBB4; ATP near Km): 13.2 nM | remaining activity at 1 µM (FYN; [3]): < 50% | IC50 (FYN; ATP near Km): 1710 nM | remaining activity at 1 µM (MEK1; [3]): < 50% | IC50 (MEK1; ATP near Km): 147 nM | remaining activity at 1 µM (BRK; [3]): < 50% | IC50 (BRK; ATP near Km): 54.2 nM | remaining activity at 1 µM (MEK2; [3]): < 50% | IC50 (MEK2; ATP near Km): 82.7 nM | remaining activity at 1 µM (TXK; [3]): < 50% | IC50 (TXK; ATP near Km): 209 nM | remaining activity at 1 µM (CSK; [3]): < 50% | IC50 (CSK; ATP near Km): 552 nM | kinases other than BTK with Percent of Control (POC) values less than 50 (371 kinases): only eight of 371 kinases other than BTK | HPLC Solubility ([2]; CAPMUL ® MCM EP, 40 °C): 33.3 mg API per g mixture | HPLC Solubility ([2]; Capmul PG-8, 25 °C): 30.3 mg API per g mixture | HPLC Solubility ([2]; Glycerine, 25 °C): 0.5 mg API per g mixture | HPLC Solubility ([2]; KOLLIPHOR ® EL, 25 °C): 46.2 mg API per g mixture | HPLC Solubility ([2]; LABRAFIL ® M2125CS, 25 °C): 3.2 mg API per g mixture | HPLC Solubility ([2]; LABRASOL ® ALF, 25 °C): 104.1 mg API per g mixture | HPLC Solubility ([2]; LAUROGLYCOL ™ FCC, 25 °C): 5.1 mg API per g mixture | HPLC Solubility ([2]; Long chain triglycerides/long chain lipid digestion products, 25 °C): 0.02 mg API per g mixture | HPLC Solubility ([2]; MIGLYOL ® 812, 25 °C): 0.62 mg API per g mixture | HPLC Solubility ([2]; Medium chain triglycerides/medium chain lipid digestion products, 25 °C): 0.02 mg API per g mixture | HPLC Solubility ([2]; Oleic acid, 25 °C): 1.2 mg API per g mixture | HPLC Solubility ([2]; PECEOL ™, 40 °C): 6.6 mg API per g mixture | HPLC Solubility ([2]; PEG-400 (Macrogol 400), 25 °C): 168.9 mg API per g mixture | HPLC Solubility ([2]; PHOSAL ® 53 MCT, 25 °C): 11.3 mg API per g mixture | HPLC Solubility ([2]; Polysorbate 80/Tween-80, 25 °C): 43.6 mg API per g mixture | HPLC Solubility ([2]; Propylene glycol, 25 °C): 29.4 mg API per g mixture | HPLC Solubility ([2]; SPAN ® 80, 25 °C): 6.2 mg API per g mixture | HPLC Solubility ([2]; Sesame oil, 25 °C): 0.07 mg API per g mixture | HPLC Solubility ([2]; Vitamin E-TPGS NF, 40 °C): 43.1 mg API per g mixture | excipients in which solubility is best ([2]; excipient screen for lipid-based formulations): best in PEG 400, LABRASOL® ALF (e.g., caprylocaproyl polyoxyl-8 glycerides), KOLLIPHOR® EL (e.g., polyoxyl castor oil), Tween 80, and Vitamin E TPGS; also recorded: most soluble in LABRASOL® ALF and PEG-400

Source: US12268666B2, “Spray-dried dispersions, formulations, and polymorphs of (S)-5-amino-3-(4-((5-fluoro-2-methoxybenzamido)methyl)phenyl)-1-(1,1,1-trifluoropropan-2-yl)-1H-pyrazole-4-carboxamide” (Loxo Oncology, Inc., priority 2018, dated 2025)
